# EP0338042B1, “COMPOSITION AND METHOD FOR TREATING HEPATITIS VIRUS INFECTIONS USING 1-(2'-DEOXY-2'-FLUORO-BETA-D-ARABINOFURANOSYL)-5-ETHYLURACIL” (priority 1987, dated 1989)
# Read-outs that look alike come from different tables or passages of the source.
# Legend:
# [1] = system: woodchuck hepatitis virus (WHV); assay: Inhibition of WHV replication in chronically infected woodchucks (DNA polymerase activity); format: in vivo, woodchucks (Marmota monax); settings: for WHV DNA polymerase levels / WHV DNA polymerase levels after cessation of drug administration: other antivirals, dose not given; for virus replication levels: dosages similar to FMAU (2-4 mg/kg per day); for virus replication levels after cessation of treatment: dosages similar to FMAU, soon after cessation
# Method: All woodchucks bearing chronic active hepatitis virus (Hantz, supra) were administered FMAU twice daily by interperitoneal injections of FMAU in the following dosages:
# Studies were then undertaken to evaluate FMAU and FEAU in this animal model using woodchucks naturally chronically-infected with woodchuck hepatitis virus (24). It was assumed that these nucleosides would be anabolized to their nucleoside triphosphates within the animal. WHV replication was measured periodically by the endogenous DNA polymerase activity and by the detection of WHV DNA by the dot-blot hybridization assay. Three different dosages of FMAU and FEAU were investigated. FMAU at 2 mg/kg/day x 5, (given intraperitoneally TABLE VIII
# In accordance with the procedures of Example 2, the FEAU inhibition of WHV replication was further studied at different doses administered orally to woodchucks through stomach tubes. Two groups of woodchucks with different initial WHV replication values were examined.
# Seven woodchucks with high WHV replication were tested. High replication was defined as over 1000 counts per minute of DNA polymerase activity, and the mean replication was 1600.
# Seven woodchucks with low WHV replication were tested. Low replication was defined as lower than 1000 counts per minute of DNA polymerase activity, and the mean replication was 600-800.
# [2] = molecular target: T1, HBV DNA polymerase (Hepatitis B virus genotype D subtype ayw, UniProt P03156); assay: Time course of DNA synthesis with triphosphate analogs in place of the natural substrate; format: biochemical; settings: for DNA synthesis with analog substituted for the natural substrate: ara-TTP for dTTP, ara-CTP for dCTP, ACVTP for dGTP; for HBV DNA synthesis after addition of the normal substrate: reaction started with analog instead of normal substrate (ACVTP 5 µM), normal substrate (100 µM dGTP) added after 120 minutes
# T1 construct: from tissue; host or cells: serum of an immunosuppressed, HBsAg-positive patient; virions purified on sucrose and CsCl gradients
# T1 sequence (P03156 whole entry): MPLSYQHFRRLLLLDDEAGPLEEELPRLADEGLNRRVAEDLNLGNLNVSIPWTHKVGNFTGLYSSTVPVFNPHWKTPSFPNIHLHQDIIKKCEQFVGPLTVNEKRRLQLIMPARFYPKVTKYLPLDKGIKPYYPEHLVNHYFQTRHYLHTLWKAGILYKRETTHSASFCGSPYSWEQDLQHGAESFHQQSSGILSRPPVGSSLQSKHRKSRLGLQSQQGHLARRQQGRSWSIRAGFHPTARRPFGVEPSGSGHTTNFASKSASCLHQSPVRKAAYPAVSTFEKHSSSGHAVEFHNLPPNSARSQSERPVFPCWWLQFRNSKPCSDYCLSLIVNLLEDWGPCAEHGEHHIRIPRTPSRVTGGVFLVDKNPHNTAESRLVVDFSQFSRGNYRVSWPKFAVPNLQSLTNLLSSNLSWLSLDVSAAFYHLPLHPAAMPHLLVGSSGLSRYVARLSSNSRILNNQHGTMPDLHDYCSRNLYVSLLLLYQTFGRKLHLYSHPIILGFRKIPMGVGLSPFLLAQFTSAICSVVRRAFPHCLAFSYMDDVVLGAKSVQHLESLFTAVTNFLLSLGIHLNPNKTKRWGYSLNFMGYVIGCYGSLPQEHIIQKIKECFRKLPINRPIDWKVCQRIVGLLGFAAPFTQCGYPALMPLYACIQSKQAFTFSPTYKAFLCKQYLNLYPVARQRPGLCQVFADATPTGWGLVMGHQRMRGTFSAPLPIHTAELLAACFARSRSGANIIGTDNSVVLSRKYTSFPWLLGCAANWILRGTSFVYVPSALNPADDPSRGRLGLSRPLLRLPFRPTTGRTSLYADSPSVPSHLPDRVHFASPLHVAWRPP
# Method: (§1) DNA polymerase was assayed as described by Kaplan et al., J. Virol. 12: 995 (1973) with minor modification. The assay was performed in a 50 µl reaction mixture containing 50 mM Tris-HCl pH 7.5, 40 mM MgCl₂, 60 mM NH₄Cl, 100 µM each dATP, dCTP and dGTP, 0.2-0.7 µM [³H] dTTP (30 Ci/mmol), 10 mM 2-mercaptoethanol, 0.5% Nonidet P-40 and enzyme. The reaction was started by addition of the virus particles with 2-mercaptoethanol and Nonidet P 40. Incubation was at 37°C for 1 hour. Acid insoluble radioactive material was collected on a glass fiber filter (GF/C Whatman). Filters were washed 5 times with cold 5% trichloracetic acid containing 10 mM sodium pyrophosphate, then with 95% ethanol. Radioactivity of the dried filter was measured in a liquid scintillation counter.
# To determine the effect of the three analogs on viral DNA synthesis, a time course experiment was performed with HBV DNA polymerase. [³H] dATP was used as the labeled substrate. With all four nucleoside triphosphate substrates, the reaction was linear up to 60 mn. […] The substitution of dTTP by BVdUTP permitted the viral DNA synthesis up to 46% of the control after 3 hours of reaction. This value increased to 67% of the optimal activity after 4 h of reaction.
# BVdUTP was the most efficient alternate substrate for both enzymes. The DNA synthesized with BVdUTP as alternate substrate was analyzed by agarose gel electrophoresis. Only incomplete filling of the single-stranded region of HBV or WHV DNA was obtained with BVdUTP.
# The effect of ACVTP on HBV DNA synthesis was also studied in a time course experiment. [³H] dTTP was the labeled substrate. The reaction was initiated without dGTP or with 5 µm ACVTP instead of dGTP. Under these conditions, no incorporation of [³H] dTMP could be measured. After 120 minutes of reaction, 100 µM of dGTP was added. In the assay without dGTP only, the addition of dGTP increased DNA synthesis as expected. […] By comparison, when the reaction was started with the same proportion of ACVTP (5 µM) and dGTP (100 µM) a significant DNA synthesis was observed. Similar experiments were carried out with ara-ATP and ara-CTP.
# [3] = molecular target: T2, WHV DNA polymerase (Woodchuck hepatitis B virus, UniProt P03160); assay: DNA polymerase assay with purified virus particles; format: biochemical; settings: read-out: ID₅₀ WHV DNA POLYMERASE
# T2 construct: The reaction was started by addition of the virus particles with 2-mercaptoethanol and Nonidet P 40; from tissue; host or cells: serum pool of five chronically infected woodchucks (Marmota monax); virions purified on sucrose and CsCl gradients
# T2 sequence (P03160 whole entry): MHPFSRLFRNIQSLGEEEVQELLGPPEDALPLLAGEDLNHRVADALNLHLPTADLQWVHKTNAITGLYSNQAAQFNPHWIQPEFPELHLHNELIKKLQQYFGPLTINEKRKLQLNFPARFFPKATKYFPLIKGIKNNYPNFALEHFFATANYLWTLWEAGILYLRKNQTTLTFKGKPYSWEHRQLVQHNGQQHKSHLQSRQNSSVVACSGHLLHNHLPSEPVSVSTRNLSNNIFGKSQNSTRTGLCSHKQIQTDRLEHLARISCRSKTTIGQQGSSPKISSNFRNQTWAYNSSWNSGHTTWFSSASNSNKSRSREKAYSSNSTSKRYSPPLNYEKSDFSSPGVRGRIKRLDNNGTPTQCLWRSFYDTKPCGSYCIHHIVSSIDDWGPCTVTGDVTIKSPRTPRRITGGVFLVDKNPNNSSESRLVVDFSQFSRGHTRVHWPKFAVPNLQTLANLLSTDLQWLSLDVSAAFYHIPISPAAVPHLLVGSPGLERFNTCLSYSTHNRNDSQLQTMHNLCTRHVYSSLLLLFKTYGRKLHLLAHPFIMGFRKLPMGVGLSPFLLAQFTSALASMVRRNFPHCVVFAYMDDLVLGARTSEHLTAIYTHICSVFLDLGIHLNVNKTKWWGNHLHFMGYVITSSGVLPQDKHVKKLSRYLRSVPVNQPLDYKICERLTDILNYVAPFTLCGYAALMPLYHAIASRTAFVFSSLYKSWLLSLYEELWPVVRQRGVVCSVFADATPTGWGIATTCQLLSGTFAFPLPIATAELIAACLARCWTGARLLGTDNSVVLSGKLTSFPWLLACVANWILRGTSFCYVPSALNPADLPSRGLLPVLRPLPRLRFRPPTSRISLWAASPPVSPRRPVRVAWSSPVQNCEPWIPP
# Source text: (§2) HBV particles containing DNA polymerase activity were purified from the serum of an immunosuppressed patient, positive for HBsAG. WHV was obtained from a serum pool of five woodchucks (Marmota monax), chronic carriers of the virus. The woodchucks initially imported from Pennsylvania belonged to a colony followed for over one year by serological tests as reported in Hantz et al., J. Virol. Metho. 7: 45-55 (1983). Virus was purified by centrifugation on sucrose and isopycnic CsCl gradients.
# as §1
# (§3) The relative sensitivities of both enzymes to ACVTP, FIACTP and BVdUTP were compared using an excess of nucleotides. For each inhibitor, the concentration of the corresponding radioactive triphosphate was maintained at 2 to 3 times the Km value while the remaining nucleotides were in great excess (50 µM).
# [4] = molecular target: T1, HBV DNA polymerase; assay: DNA polymerase assay with purified virus particles; format: biochemical; settings: for nature of inhibition (Lineweaver-Burk plots): ACVTP, FIACTP, BVdUTP versus dGTP, dCTP, dTTP respectively, similar for WHV DNA polymerase; for IC50: concentration of inhibitor giving a 50% inhibition of DNA polymerase activity, read-out: ID₅₀ HBV DNA POLYMERASE; for ID₅₀ compared with FIACTP (times more): stated for HBV and WHV DNA polymerases; for relative efficiency as inhibitor of HBV DNA polymerase: excess of nucleotides, similar results with WHV DNA polymerase
# Source text: as §2, §1, §3
# [5] = system: HSV-2 (STRAIN G); settings: cited from earlier work; for MDD: twice a day for 4 days from 5 hr after inoculation, calculated on day 21; for % SURVIVORS: twice a day for 4 days; for %WT GAIN ON DAY 7 / %WT GAIN ON DAY 14 / %WT GAIN ON DAY 21 / %WT GAIN ON DAY 30: compared to day 1
# [6] = physchem
# Source text: Ongoing testing of woodchucks bearing hepatitis virus is being conducted with the following additional pyrimidine nucleoside compounds: FIAC (2′-fluoro-2′-deoxy-arabinosyl-5-iodoocytosine) and FIAU (2′-fluoro-2′-deoxy-arabinosyl-5-iodouracil). As with FMAU, water is the preferred carrier.
# If necessary, the solubility of the compounds FMAU, FIAC, and FIAU may be increased by adding acid or base to the aqueous solvent.
# [7] = concentration of inhibitor giving a 50% inhibition of DNA polymerase activity
smiles,measurement,setting,value
Nc1ncc2ncn(COCCO)c2n1 [6-deoxy-acyclovir],WHV DNA polymerase levels,[1],diminished
same,WHV DNA polymerase levels after cessation of drug administration,[1],rebounded to pretreatment levels
Nc1nc2c(ncn2COCCOP(=O)(O)OP(=O)(O)OP(=O)(O)O)c(=O)[nH]1 [ACVTP],DNA synthesis with analog substituted for the natural substrate,[2],did not increase the polymerization process
same,HBV DNA synthesis after addition of the normal substrate,[2],no DNA synthesis was observed
same,IC50,[3]; [7],700 nM
same,nature of inhibition (Lineweaver-Burk plots),[4],competitive
same,IC50,[4],900 nM
same,ID₅₀ compared with FIACTP (times more),[4],18 times
O=c1[nH]c(=O)n([C@H]2C[C@H](O)[C@@H](COP(=O)(O)OP(=O)(O)OP(=O)(O)O)O2)cc1/C=C/Br [BVdUTP],IC50,[3]; [7],300 nM
same,nature of inhibition (Lineweaver-Burk plots),[4],competitive
same,IC50,[4],250 nM
same,ID₅₀ compared with FIACTP (times more),[4],5 times
Nc1nc2c(ncn2COC(CO)CO)c(=O)[nH]1 [DHPG],WHV DNA polymerase levels,[1],diminished
same,WHV DNA polymerase levels after cessation of drug administration,[1],rebounded to pretreatment levels
"CCc1cn([C@H]2C[C@H](O)[C@@H](CO)O2)c(=O)[nH]c1=O [EDU, 5-ethyl-2′-deoxyuridine, reference compound]",MDD,[5]; EDU 800 MG/KG/DAY,7.6
same,% SURVIVORS,[5]; EDU 800 MG/KG/DAY,13%
same,%WT GAIN ON DAY 7,[5]; EDU 800 MG/KG/DAY,-10%
same,%WT GAIN ON DAY 14,[5]; EDU 800 MG/KG/DAY,-6%
same,%WT GAIN ON DAY 21,[5]; EDU 800 MG/KG/DAY,2%
same,%WT GAIN ON DAY 30,[5]; EDU 800 MG/KG/DAY,6%
same,MDD,[5]; EDU 1000 MG/KG/DAY,8.6
same,% SURVIVORS,[5]; EDU 1000 MG/KG/DAY,33%
same,%WT GAIN ON DAY 7,[5]; EDU 1000 MG/KG/DAY,3%
same,%WT GAIN ON DAY 14,[5]; EDU 1000 MG/KG/DAY,13%
same,%WT GAIN ON DAY 21,[5]; EDU 1000 MG/KG/DAY,34%
same,%WT GAIN ON DAY 30,[5]; EDU 1000 MG/KG/DAY,43%
"Nc1nc(=O)n([C@@H]2O[C@H](CO)[C@@H](O)[C@@H]2F)cc1I [FIAC, 1-(2'-deoxy-2'-fluoro-beta-D-arabinofuranosyl)-5-iodocytosine]",toxicity (previous results),"[1]; woodchucks, previous results",lethal toxicity
same,solubility,[6]; aqueous hydrochloric acid,~250 mg/mL
Nc1nc(=O)n([C@@H]2O[C@H](COP(=O)(O)OP(=O)(O)OP(=O)(O)O)[C@@H](O)[C@@H]2F)cc1I [FIACTP],IC50,[3]; [7],100 nM
same,nature of inhibition (Lineweaver-Burk plots),[4],competitive
same,relative efficiency as inhibitor of HBV DNA polymerase,[4],most efficient inhibitor
"O=c1[nH]c(=O)n([C@@H]2O[C@H](CO)[C@@H](O)[C@@H]2F)cc1I [FIAU, 2′-fluoro-2′-deoxy-arabinosyl-5-iodouracil]",solubility,[6],increased many fold
Cc1cn([C@@H]2O[C@H](COP(=O)(O)OP(=O)(O)OP(=O)(O)O)[C@@H](O)[C@@H]2F)c(=O)[nH]c1=O [FMAU-TP],IC50,[3],50 nM
same,IC50,[4],25 nM
Nc1nc2c(ncn2COCCO)c(=O)[nH]1 [acyclovir],virus replication levels,[1],diminished
same,virus replication levels after cessation of treatment,[1],rebounded to pretreatment levels
Nc1ncnc2c1ncn2[C@@H]1O[C@H](COP(=O)(O)O)[C@@H](O)[C@@H]1O [ara-AMP],virus replication levels,[1],diminished
same,virus replication levels after cessation of treatment,[1],rebounded to pretreatment levels
same,WHV DNA polymerase levels,[1],diminished
same,WHV DNA polymerase levels after cessation of drug administration,[1],rebounded to pretreatment levels
Nc1ncnc2c1ncn2[C@@H]1O[C@H](COP(=O)(O)OP(=O)(O)OP(=O)(O)O)[C@@H](O)[C@@H]1O [ara-ATP],HBV DNA synthesis after addition of the normal substrate,[2],increased the HBV DNA synthesis
Nc1ccn([C@@H]2O[C@H](COP(=O)(O)OP(=O)(O)OP(=O)(O)O)[C@@H](O)[C@@H]2O)c(=O)n1 [ara-CTP],DNA synthesis with analog substituted for the natural substrate,[2],no significant incorporation
same,HBV DNA synthesis after addition of the normal substrate,[2],increased the HBV DNA synthesis
same,IC50,[3]; [7],1200 nM
same,IC50,[4],1100 nM
same,relative efficiency as inhibitor of HBV DNA polymerase,[4],least efficient
Cc1cn([C@@H]2O[C@H](COP(=O)(O)OP(=O)(O)OP(=O)(O)O)[C@@H](O)[C@@H]2O)c(=O)[nH]c1=O [ara-TTP],DNA synthesis with analog substituted for the natural substrate,[2],no significant DNA synthesis
same,IC50,[3]; [7],400 nM
same,IC50,[4],300 nM
